Experimental data: US12595251B2, “Amidines and amidine analogs for the treatment of bacterial infections and potentiation antibiotics” (GEORGIA STATE UNIVERSITY RESEARCH FOUNDATION, INC., priority 2018, dated 2026)
Like-named read-outs stand apart in the source and are kept apart here.

Columns and labels:
[1] = test system: E. coli; experiment: Sensitization of E. coli to erythromycin (sensitization fold from IC90, OD600, 20 h); format: cell-based, Escherichia coli; conditions: NA=no activity; for SF (E. coli) at 12.5 μM / SF (E. coli) at 25 μM / SF (E. coli) at 6 μM / SF (E. coli) at 12 μM: erythromycin; for SF (E. coli) at 12.5 μM: compound at 12.5 μM; for SF (E. coli) at 25 μM: compound at 25 μM; for SF (E. coli) at 6 μM: compound at 6 μM; for SF (E. coli) at 12 μM: compound at 12 μM
Experimental: (§1) E. coli bacteria were cultured in Miller's broth at 37° C. overnight prior to treatment. B. subtilis bacteria were cultured in nutrient broth at 37° C. overnight prior to treatment. […] Bacterial density was measured based on OD600.

[2] = test system: B. subtilis; experiment: Sensitization of B. subtilis to erythromycin (sensitization fold from IC90, OD600, 20 h); format: cell-based, Bacillus subtilis; conditions: for SF (B. subtilis) at 6 μM: compound at 6 μM; for SF (B. subtilis) at 12 μM: compound at 12 μM; for SF (B. subtilis): sensitization fold = IC90 of erythromycin without/with compound, compound concentration not given, T=toxic; for SF (B. subtilis) at 3 μM: compound at 3 μM
Experimental: as §1

[3] = test system: wild-type E. coli; experiment: Sensitization of wild-type E. coli toward antibiotics (MIC of antibiotic with/without sensitizer); format: cell-based, Escherichia coli; conditions: wild-type E. coli; for MIC: Escherichia coli, antibiotic alone, read-out: MIC of AB only; for MIC of AB with Compound C (5 μg/ml) / FIC: antibiotic plus Compound C 5 μg/ml; for FIC: fractional inhibitory concentration
Experimental: Bacteria were cultured with the antibiotic at various concentrations in the presence or absence of bacterial sensitizer for 24 hours at 37° C. Bacterial growth density was determined by measuring OD600 (absorbance measured at a wavelength of 600 nm). […]
The formula for calculating FIC is shown below: […]

[4] = test system: NDM-1 over-expressing E. coli; experiment: microbe, parasite or virus in culture; format: cell-based, Escherichia coli; conditions: for MIC: Escherichia coli; for Sensitization fold: MIC of antibiotic only / MIC with Compound C 5 μg/ml; for FIC / MIC of AB with Compound C (5 μg/ml): antibiotic plus Compound C 5 μg/ml
[5] = test system: MRSA; experiment: Sensitization of MRSA to erythromycin (sensitization fold from IC90); format: cell-based, Staphylococcus aureus; conditions: for SF (MRSA) at 6 μM: compound at 6 μM; for SF (MRSA) at 4 μM: compound at 4 μM; for SF (MRSA) at 12 μM: compound at 12 μM; for SF (MRSA) at 12 μM / SF (MRSA) at 25 μM: NA=no activity; for SF (MRSA) at 25 μM: compound at 25 μM
Experimental: MRSA bacteria were cultured in nutrient broth at 37° C. overnight prior to treatment. […] Bacterial density was measured based on OD600.

[6] = test system: MRSA; experiment: MIC of compounds against MRSA (OD600, 48 h); format: cell-based; conditions: Staphylococcus aureus; for MIC: MIC = 90% growth inhibition, compound alone, 48 h; for inhibition at 12 µM: compound alone at 12 μM, NA=no activity, read-out: Growth inhibition of MRSA at 12 μM; for inhibition at 6 µM: read-out: Growth inhibition of MRSA at 6 μM, compound alone at 6 μM, NA=no activity
Experimental: Bacteria were then cultured with varying concentration of the compounds shown below for 48 hours, and then bacterial density was measured based on OD600. The minimum inhibitory concentration (MIC, 90% growth inhibition) was calculated for each compound, as shown in Table 4 (NA=no activity; --=not measured).

[7] = antibiotic alone, read-out: MIC of AB only

Cc1cc(COc2ccc(C(=N)N)cc2)nc(COc2ccc(C(=N)N)cc2)c1
SF (E. coli) at 12.5 μM [1]: 8 fold
SF (E. coli) at 25 μM [1]: 32 fold
SF (E. coli) ([1]; sensitization fold = IC90 of erythromycin without/with compound, compound concentration not given, T=toxic): 33
SF (B. subtilis) at 6 μM ([2]; erythromycin, NA=no activity): 8 fold
SF (B. subtilis) at 12 μM ([2]; erythromycin, NA=no activity): 32 fold
SF (B. subtilis) ([2]; NA=no activity): > 30

O=C(N[C@H](CO)[C@H](O)c1ccc([N+](=O)[O-])cc1)C(Cl)Cl [Chloramphenicol, chloramphenicol]
MIC ([3]; 24 h): 12.5 µg/mL
MIC of AB with Compound C (5 μg/ml) [3]: 1.5 µg/mL
FIC [3]: 0.22
MIC [4, 7]: 6.25 µg/mL
Sensitization fold [4]: 8
FIC [4]: 0.22
MIC of AB with Compound C (5 μg/ml) [4]: 0.8 µg/mL

CC[C@H]1OC(=O)[C@H](C)[C@@H](O[C@H]2C[C@@](C)(OC)[C@@H](O)[C@H](C)O2)[C@H](C)[C@@H](O[C@@H]2O[C@H](C)C[C@H](N(C)C)[C@H]2O)[C@](C)(OC)C[C@@H](C)C(=O)[C@H](C)[C@@H](O)[C@]1(C)O [Clarithromycin, clarithromycin]
MIC [4, 7]: 24 µg/mL
FIC [4]: 0.12
MIC of AB with Compound C (5 μg/ml) [4]: 0.4 µg/mL

CCC[C@@H]1C[C@@H](C(=O)N[C@@H]([C@H]2O[C@H](SC)[C@H](O)[C@@H](O)[C@H]2O)[C@H](C)Cl)N(C)C1 [Clindamycin, clindamycin]
MIC ([3]; 24 h): 250 µg/mL
MIC of AB with Compound C (5 μg/ml) [3]: 4 µg/mL
FIC [3]: 0.12
MIC [4, 7]: 250 µg/mL
FIC [4]: 0.12
MIC of AB with Compound C (5 μg/ml) [4]: 4 µg/mL

CO[C@@H]1[C@@H](OC(N)=O)[C@@H](O)[C@H](Oc2ccc3c(O)c(NC(=O)c4ccc(O)c(CC=C(C)C)c4)c(=O)oc3c2C)OC1(C)C [Novobiocin, novobiocin]
MIC [3]: 100 µg/mL
MIC of AB with Compound C (5 μg/ml) [3]: 1.5 µg/mL
FIC [3]: 0.12
MIC [4, 7]: 50 µg/mL
MIC ([4]; read-out: MIC of AB with Compound C (5 μg/ml), antibiotic plus Compound C 5 μg/ml): 1.6 µg/mL
Sensitization fold [4]: 32
FIC [4]: 0.13

Cc1cc(COc2ccc(C3=NCCN3)cc2)cc(COc2ccc(C3=NCCN3)cc2)c1 [drawing 723]
SF (B. subtilis) ([2]; NA=no activity): >4

N=C(N)c1ccc(OCc2ccc(COc3ccc(C(=N)N)cc3)cc2)cc1 [drawing 728]
SF (B. subtilis) ([2]; NA=no activity): <2

COc1cc(C(=N)N)ccc1OCc1cccc(COc2ccc(C(=N)N)cc2OC)c1F [drawing 731]
SF (B. subtilis) at 6 μM ([2]; erythromycin, NA=no activity): 4-fold at 6 μM

Cc1cc(COc2ccc(CN)cc2)cc(COc2ccc(CN)cc2)c1 [drawing 733]
SF (E. coli) at 25 μM [1]: 4-fold at 25 μM
SF (B. subtilis) at 12.5 μM ([2]; erythromycin, compound at 12.5 μM, NA=no activity): 16-fold at 12.5 μM

Cc1cc(CCc2ccc(C(=N)N)cc2)cc(CCc2ccc(C(=N)N)cc2)c1 [drawing 734]
SF (E. coli) at 12.5 μM [1]: 8 fold
SF (E. coli) at 25 μM [1]: 32 fold
SF (B. subtilis) at 6 μM ([2]; erythromycin, NA=no activity): 32-fold at 6 μM

Cc1cc(OCc2ccc(C(=N)N)cc2)cc(OCc2ccc(C(=N)N)cc2)c1 [drawing 736]
SF (E. coli) at 25 μM [1]: 32-fold at 25 μM
SF (B. subtilis) at 12 μM ([2]; erythromycin, NA=no activity): 32-fold at 12 μM

COc1cc(C(=N)N)ccc1OCc1cc(COc2ccc(C(=N)N)cc2OC)cc(C(C)(C)C)c1 [drawing 741]
SF (E. coli) at 6 μM [1]: 2 fold
SF (E. coli) at 12.5 μM [1]: 8 fold
SF (B. subtilis) at 6 μM ([2]; erythromycin, NA=no activity): 2 fold
SF (B. subtilis) at 12 μM ([2]; erythromycin, NA=no activity): 8 fold

CC(C)(C)c1cc(COc2ccc(C(=N)N)cc2F)cc(COc2ccc(C(=N)N)cc2F)c1 [drawing 742]
SF (E. coli) at 6 μM [1]: 4 fold
SF (E. coli) at 12 μM [1]: 32 fold
SF (B. subtilis) at 3 μM ([2]; erythromycin): 2 fold
SF (B. subtilis) at 6 μM ([2]; erythromycin, NA=no activity): 8 fold

Cc1cc(COc2cccc(C(=N)N)c2)cc(COc2cccc(C(=N)N)c2)c1 [drawing 743]
SF (E. coli) at 12 μM [1]: 2 fold
SF (E. coli) at 25 μM [1]: 8 fold
SF (B. subtilis) at 6 μM ([2]; erythromycin, NA=no activity): 8 fold
SF (B. subtilis) at 12 μM ([2]; erythromycin, NA=no activity): 32 fold

Cc1cc(CSc2ccc(C(=N)N)cc2)cc(CSc2ccc(C(=N)N)cc2)c1 [drawing 744]
SF (E. coli) at 12.5 μM [1]: 32 fold
SF (B. subtilis) at 6 μM ([2]; erythromycin, NA=no activity): 32 fold

Cc1cc(CSc2ccc(C3=NCCN3)cc2)cc(CSc2ccc(C3=NCCN3)cc2)c1 [drawing 745]
SF (B. subtilis) at 3 μM ([2]; erythromycin): 4 fold
SF (B. subtilis) at 6 μM ([2]; erythromycin, NA=no activity): 16 fold

Cc1ccc(COc2ccc(C(=N)N)cc2)cc1COc1ccc(C(=N)N)cc1 [drawing 746]
SF (E. coli) at 12.5 μM [1]: 4 fold
SF (E. coli) at 25 μM [1]: 32 fold
SF (B. subtilis) at 6 μM ([2]; erythromycin, NA=no activity): 16 fold
SF (B. subtilis) at 12 μM ([2]; erythromycin, NA=no activity): 32 fold

Cc1cc(COc2ccc(C(=N)N)cc2)cc(COc2ccc(C(=N)N)cc2)c1 [drawing 834]
SF (MRSA) at 6 μM [5]: 32-fold at 6 μM
MIC [6]: 25 µM

Cc1cc(COc2ccc(C(=N)NC(C)C)cc2)cc(COc2ccc(C(=N)NC(C)C)cc2)c1 [drawing 835]
SF (MRSA) at 4 μM [5]: 32-fold at 4 μM
MIC [6]: 25 µM

COc1cc(C(=N)N)ccc1OCc1cc(C)cc(COc2ccc(C(=N)N)cc2OC)c1 [drawing 836]
SF (MRSA) at 6 μM [5]: 2-4 fold
SF (MRSA) at 12 μM [5]: 8-16 fold
MIC [6]: 25 µM
inhibition at 12 µM [6]: 10%

Cc1cc(CCc2ccc(C(=N)N)cc2)cc(CCc2ccc(C(=N)N)cc2)c1 [drawing 838]
SF (MRSA) at 3 μM ([5]; compound at 3 μM): 16-fold at 3 μM
MIC [6]: 12 µM

CC(C)NC(=N)c1ccc(OCc2cccc(COc3ccc(C(=N)NC(C)C)cc3)c2F)cc1 [drawing 839]
SF (MRSA) at 4 μM [5]: 16-fold at 4 μM
MIC [6]: 12.5 µM

CC(C)NC(=N)c1ccc(OCc2cccc(COc3ccc(C(=N)NC(C)C)cc3F)c2F)c(F)c1 [drawing 840]
SF (MRSA) at 6 μM [5]: 8 fold
SF (MRSA) at 12 μM [5]: 8-16 fold
inhibition at 12 µM [6]: 30%

CCCNC(=N)c1ccc(COc2cc(C)cc(OCc3ccc(C(=N)NCCC)cc3)c2)cc1 [drawing 841]
SF (MRSA) at 12 μM [5]: 8 fold
SF (MRSA) at 25 μM [5]: 8-16 fold
inhibition at 25 µM ([6]; read-out: Growth inhibition of MRSA at 25 μM, compound alone at 25 μM, NA=no activity): 30%

Cc1cc(COc2ccc(C3=NCCCN3)cc2)cc(COc2ccc(C3=NCCCN3)cc2)c1 [drawing 842]
SF (MRSA) at 12 μM [5]: 4 fold
SF (MRSA) at 25 μM [5]: 8 fold

COc1cc(C(=N)N)ccc1OCc1cc(COc2ccc(C(=N)N)cc2OC)cc(C(C)(C)C)c1 [drawing 843]
MIC [6]: 12 µM

CC(C)(C)c1cc(COc2ccc(C(=N)N)cc2F)cc(COc2ccc(C(=N)N)cc2F)c1 [drawing 844]
inhibition at 6 µM [6]: 60%

Cc1cc(COc2cccc(C(=N)N)c2)cc(COc2cccc(C(=N)N)c2)c1 [drawing 845]
SF (MRSA) at 12.5 μM ([5]; compound at 12.5 μM): 4-fold at 12.5 μM
MIC [6]: 25 µM
inhibition at 12.5 µM ([6]; compound alone at 12.5 μM, read-out: Growth inhibition of MRSA at 12.5 μM): 30%

Cc1cc(COc2ccc(C(=N)N)cc2F)cc(COc2ccc(C(=N)N)cc2F)c1 [drawing 846]
MIC [6]: 12 µM
inhibition at 6 µM [6]: 20%
